Tests used:
HS-Sch-2 = experiment: relative IC50 (inflection point of fitted dose-response curve, CellTiter-Glo viability, 72 h; top asymptote may be below 50% inhibition); higher = less potent
Summary of the method: (§1)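 After seeding 750–1000 cells per well of MPNST cell lines or primary human Schwann cells into 384-well plates preprinted with each compound at five concentrations in 10-fold steps, plates were kept 72 h at 37 °C, 5% CO2. Viability was read as CellTiter-Glo ATP luminescence relative to vehicle and positive-control wells, with duplicates averaged where present. The data were fitted with four-parameter logistic models. Drug sensitivity score and relative IC50, censored at the top concentration, derive from the fits, and percent inhibition refers to the top concentration.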

YST-1 = experiment: as above
Summary of the method: as §1

HSC1 [1] = experiment: as above
Summary of the method: as §1

HSC2 [2] = experiment: as above
Summary of the method: as §1

ST8814 [3] = experiment: as above
Summary of the method: as §1

S1507-2 [4] = experiment: as above
Summary of the method: as §1

STS26T [5] = experiment: as above
Summary of the method: as §1

HSC1 [6] = experiment: relative IC50 (inflection point of fitted dose-response curve, CellTox-Green cytotoxicity, 72 h; top asymptote may be below 50%); higher = less potent
Summary of the method: (§2)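 For 72 h at 37 °C, MPNST cell lines and primary human Schwann cells were exposed in 384-well plates to five 10-fold compound dilutions. CellTox-Green, added before seeding at a final 1:1000 dilution, gave fluorescence from DNA released by disrupted cells. Signals were scaled to vehicle and positive-control wells, cultures failing plate quality control were left out, and four-parameter logistic fits were applied. Relative IC50 and drug sensitivity score were derived from the fits, with IC50 censored at the top concentration.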

HSC2 [7] = experiment: as above
Summary of the method: as §2

ST8814 [8] = experiment: as above
Summary of the method: as §2

S1507-2 [9] = experiment: as above
Summary of the method: as §2

HS-PSS [10] = experiment: as above
Summary of the method: as §2

S462 = experiment: relative IC50 (inflection point of fitted dose-response curve, CellTiter-Glo viability, 72 h; top asymptote may be below 50% inhibition); higher = less potent
Summary of the method: as §1

HS-PSS [11] = experiment: as above
Summary of the method: as §1

STS26T [12] = experiment: relative IC50 (inflection point of fitted dose-response curve, CellTox-Green cytotoxicity, 72 h; top asymptote may be below 50%); higher = less potent
Summary of the method: as §2

N#Cc1ccc(COC[C@H]2O[C@@H](n3c(NCc4ccc(Cl)c(Cl)c4)nc4c(N)ncnc43)[C@H](O)[C@@H]2O)cc1
relative IC50 (HS-Sch-2): > 10 µM
relative IC50 (YST-1): 1.24 µM
relative IC50 (HSC1 [1]): 0.784 µM
relative IC50 (HSC2 [2]): 0.261 µM
relative IC50 (ST8814 [3]): > 10 µM
relative IC50 (S1507-2 [4]): > 10 µM
relative IC50 (STS26T [5]): 1.1 µM
relative IC50 (HSC1 [6]): > 10 µM
relative IC50 (HSC2 [7]): > 10 µM
relative IC50 (ST8814 [8]): > 10 µM
relative IC50 (S1507-2 [9]): > 10 µM
relative IC50 (HS-PSS [10]): > 10 µM

Nc1nccc(-c2c(-c3ccc(F)cc3)ncn2C2CCCCC2)n1
relative IC50 (HS-Sch-2): 3.78 µM
relative IC50 (S462): > 10 µM
relative IC50 (YST-1): 0.8 µM
relative IC50 (HSC1 [1]): > 10 µM
relative IC50 (HSC2 [2]): > 10 µM
relative IC50 (S1507-2 [4]): > 10 µM
relative IC50 (STS26T [5]): > 10 µM
relative IC50 (HSC1 [6]): > 10 µM
relative IC50 (HSC2 [7]): > 10 µM
relative IC50 (ST8814 [8]): > 10 µM
relative IC50 (S1507-2 [9]): > 10 µM

O=C(Nc1ccc2[nH]nc(-c3ccncc3)c2c1)[C@@H]1CCN(CC(=O)N2CCN(c3ccc(-c4ncccn4)cc3)CC2)C1
relative IC50 (HS-Sch-2): 0.773 µM
relative IC50 (S462): 0.137 µM
relative IC50 (YST-1): 2.27 µM
relative IC50 (HSC1 [1]): 0.263 µM
relative IC50 (HSC2 [2]): 0.159 µM
relative IC50 (ST8814 [3]): 0.234 µM
relative IC50 (S1507-2 [4]): 0.568 µM
relative IC50 (HS-PSS [11]): 0.677 µM
relative IC50 (STS26T [5]): 0.822 µM
relative IC50 (HSC1 [6]): > 10 µM
relative IC50 (ST8814 [8]): 0.675 µM
relative IC50 (S1507-2 [9]): 1.95 µM
relative IC50 (HS-PSS [10]): > 10 µM

O=C1CN2Cc3c(ccc(Cl)c3Cl)N=C2N1 [Anagrelide]
relative IC50 (HS-Sch-2): 0.144 µM
relative IC50 (S462): > 10 µM
relative IC50 (YST-1): > 10 µM
relative IC50 (HSC2 [2]): 0.134 µM
relative IC50 (S1507-2 [4]): > 10 µM
relative IC50 (HS-PSS [11]): > 10 µM
relative IC50 (STS26T [5]): > 10 µM
relative IC50 (HSC1 [6]): > 10 µM
relative IC50 (ST8814 [8]): > 10 µM
relative IC50 (S1507-2 [9]): > 10 µM
relative IC50 (HS-PSS [10]): > 10 µM
relative IC50 (STS26T [12]): > 10 µM

CC(O)(CS(=O)(=O)c1ccc(F)cc1)C(=O)Nc1ccc(C#N)c(C(F)(F)F)c1 (stereo not given) [Bicalutamide]
relative IC50 (YST-1): > 10 µM
relative IC50 (HSC2 [2]): > 10 µM
relative IC50 (ST8814 [3]): > 10 µM
relative IC50 (S1507-2 [4]): > 10 µM
relative IC50 (HSC1 [6]): > 10 µM
relative IC50 (HSC2 [7]): > 10 µM
relative IC50 (ST8814 [8]): > 10 µM
relative IC50 (S1507-2 [9]): > 10 µM
relative IC50 (HS-PSS [10]): > 10 µM
relative IC50 (STS26T [12]): > 10 µM

CCNC(=O)CCC/C=C\C[C@@H]1[C@@H](/C=C/[C@@H](O)CCc2ccccc2)[C@H](O)C[C@@H]1O [Bimatoprost]
relative IC50 (HS-Sch-2): > 5.5 µM
relative IC50 (YST-1): > 5.5 µM
relative IC50 (HSC1 [1]): > 5.5 µM
relative IC50 (HSC2 [2]): > 5.5 µM
relative IC50 (ST8814 [3]): > 5.5 µM
relative IC50 (S1507-2 [4]): > 5.5 µM
relative IC50 (HS-PSS [11]): > 5.5 µM
relative IC50 (STS26T [5]): > 5.5 µM
relative IC50 (HSC1 [6]): > 5.5 µM
relative IC50 (HSC2 [7]): > 5.5 µM
relative IC50 (ST8814 [8]): > 5.5 µM
relative IC50 (S1507-2 [9]): > 5.5 µM
relative IC50 (HS-PSS [10]): > 5.5 µM
relative IC50 (STS26T [12]): > 5.5 µM

Cc1ccc(-c2cc(C(F)(F)F)nn2-c2ccc(S(N)(=O)=O)cc2)cc1 [Celecoxib]
relative IC50 (HS-Sch-2): > 10 µM
relative IC50 (S462): > 10 µM
relative IC50 (YST-1): > 10 µM
relative IC50 (HSC2 [2]): > 10 µM
relative IC50 (ST8814 [3]): > 10 µM
relative IC50 (S1507-2 [4]): > 10 µM
relative IC50 (HS-PSS [11]): > 10 µM
relative IC50 (STS26T [5]): > 10 µM
relative IC50 (HSC1 [6]): > 10 µM
relative IC50 (HSC2 [7]): > 10 µM
relative IC50 (ST8814 [8]): > 10 µM
relative IC50 (S1507-2 [9]): > 10 µM
relative IC50 (HS-PSS [10]): > 10 µM
relative IC50 (STS26T [12]): > 10 µM

O=C(O)CCCc1ccc(N(CCCl)CCCl)cc1 [Chlorambucil]
relative IC50 (HS-Sch-2): > 10 µM
relative IC50 (S462): > 10 µM
relative IC50 (ST8814 [3]): > 10 µM
relative IC50 (S1507-2 [4]): > 10 µM
relative IC50 (HS-PSS [11]): > 10 µM
relative IC50 (STS26T [5]): > 10 µM
relative IC50 (HSC1 [6]): > 10 µM
relative IC50 (HSC2 [7]): > 10 µM
relative IC50 (ST8814 [8]): > 10 µM
relative IC50 (S1507-2 [9]): > 10 µM
relative IC50 (HS-PSS [10]): > 10 µM
relative IC50 (STS26T [12]): > 10 µM

COc1cccc2c1C(=O)c1c(O)c3c(c(O)c1C2=O)C[C@@](O)(C(C)=O)C[C@@H]3O[C@H]1C[C@H](N)[C@H](O)[C@H](C)O1 [Daunorubicin]
relative IC50 (HS-Sch-2): 0.117 µM
relative IC50 (S462): 0.0493 µM
relative IC50 (YST-1): 0.027 µM
relative IC50 (HSC1 [1]): 0.12 µM
relative IC50 (HSC2 [2]): 0.0725 µM
relative IC50 (ST8814 [3]): 0.101 µM
relative IC50 (S1507-2 [4]): 0.146 µM
relative IC50 (HS-PSS [11]): 0.122 µM
relative IC50 (STS26T [5]): 0.0716 µM
relative IC50 (HSC1 [6]): 0.366 µM
relative IC50 (HSC2 [7]): 0.344 µM
relative IC50 (S1507-2 [9]): > 1 µM
relative IC50 (HS-PSS [10]): > 1 µM

Nc1ccccc1NC(=O)c1ccc(CNC(=O)OCc2cccnc2)cc1 [Entinostat]
relative IC50 (HS-Sch-2): 3.41 µM
relative IC50 (S462): 1.5 µM
relative IC50 (YST-1): 1.24 µM
relative IC50 (HSC1 [1]): 2.34 µM
relative IC50 (HSC2 [2]): 2.56 µM
relative IC50 (ST8814 [3]): 3.7 µM
relative IC50 (S1507-2 [4]): 2.68 µM
relative IC50 (HS-PSS [11]): 3.73 µM
relative IC50 (STS26T [5]): 2.74 µM
relative IC50 (HSC1 [6]): > 10 µM
relative IC50 (HSC2 [7]): > 10 µM
relative IC50 (ST8814 [8]): 3.64 µM
relative IC50 (S1507-2 [9]): 3.24 µM

C#Cc1cccc(Nc2ncnc3cc(OCCOC)c(OCCOC)cc23)c1 [Erlotinib]
relative IC50 (HS-Sch-2): 1.55 µM
relative IC50 (S462): 2.31 µM
relative IC50 (YST-1): 1.47 µM
relative IC50 (HSC1 [1]): 2.36 µM
relative IC50 (HSC2 [2]): 2.31 µM
relative IC50 (ST8814 [3]): 3.13 µM
relative IC50 (HS-PSS [11]): 2.1 µM
relative IC50 (STS26T [5]): 2.06 µM
relative IC50 (HSC1 [6]): > 10 µM
relative IC50 (HSC2 [7]): > 10 µM
relative IC50 (ST8814 [8]): > 10 µM
relative IC50 (S1507-2 [9]): > 10 µM
relative IC50 (HS-PSS [10]): > 10 µM
relative IC50 (STS26T [12]): > 10 µM

Cc1nc(C(=O)NCC(=O)O)c(O)c2ccc(Oc3ccccc3)cc12 [FG-4592]
relative IC50 (HS-Sch-2): 2.47 µM
relative IC50 (S462): > 10 µM
relative IC50 (YST-1): > 10 µM
relative IC50 (ST8814 [3]): > 10 µM
relative IC50 (S1507-2 [4]): > 10 µM
relative IC50 (HS-PSS [11]): 1.21 µM
relative IC50 (STS26T [5]): > 10 µM
relative IC50 (HSC1 [6]): > 10 µM
relative IC50 (HSC2 [7]): > 10 µM
relative IC50 (ST8814 [8]): > 10 µM
relative IC50 (S1507-2 [9]): > 10 µM
relative IC50 (HS-PSS [10]): > 10 µM
relative IC50 (STS26T [12]): > 10 µM

CC(C)C(=O)Nc1ccc([N+](=O)[O-])c(C(F)(F)F)c1 [Flutamide]
relative IC50 (HS-Sch-2): > 10 µM
relative IC50 (S462): > 10 µM
relative IC50 (YST-1): > 10 µM
relative IC50 (HSC2 [2]): > 10 µM
relative IC50 (ST8814 [3]): > 10 µM
relative IC50 (S1507-2 [4]): > 10 µM
relative IC50 (HSC1 [6]): > 10 µM
relative IC50 (HSC2 [7]): > 10 µM
relative IC50 (ST8814 [8]): > 10 µM
relative IC50 (S1507-2 [9]): > 10 µM
relative IC50 (HS-PSS [10]): > 10 µM
relative IC50 (STS26T [12]): > 10 µM

CC(C)NC[C@@H](C(=O)N1CCN(c2ncnc3c2[C@H](C)C[C@H]3O)CC1)c1ccc(Cl)cc1 [GDC-0068]
relative IC50 (HSC2 [2]): > 10 µM
relative IC50 (S1507-2 [4]): 2.06 µM
relative IC50 (STS26T [5]): 0.544 µM
relative IC50 (HSC2 [7]): > 10 µM
relative IC50 (ST8814 [8]): > 10 µM
relative IC50 (S1507-2 [9]): > 10 µM
relative IC50 (STS26T [12]): > 10 µM

— the supplement of paper PMC5579334
